According to PMC7076710, “Synthesis, Identification, and Structure–Activity Relationship Analysis of GATA4 and NKX2-5 Protein–Protein Interaction Modulators” (Journal of Medicinal Chemistry, 2019):
Where two headings read alike, the source gives them in different places.

What was measured:
Format in all cases: cell-based
[1] = molecular target: T1, GATA4–NKX2-5 transcriptional synergy (Mus musculus, UniProt P42582+Q08369); test: GATA4–NKX2-5 transcriptional synergy luciferase reporter assay (3xNKE reporter, COS-1 cells); details: COS-1
T1 construct: expressed in transfected cells; host or cells: COS-1

[2] = molecular target: T2, NKX2-5 transcriptional activity (Mus musculus, UniProt P42582); test: NKX2-5 luciferase reporter assay (3xNKE reporter, COS-1 cells); details: COS-1; for activity at 3 µM: read-out: NKX.3µM; for activity at 10 µM: read-out: NKX.10µM
T2 construct: expressed in transfected cells; host or cells: COS-1

[3] = molecular target: T3, GATA4 transcriptional activity (Mus musculus, UniProt Q08369); test: GATA4 luciferase reporter assay (tandem GATA-site reporter, COS-1 cells); details: for activity at 3 µM / activity at 10 µM: COS-1; for GATA4 (% of control) Mean ± SD: 10 μM, COS-1 cells, 24 h
T3 construct: expressed in transfected cells; host or cells: COS-1

COS-1 cells [4] = test: LDH assay (necrosis)
Description: (§1) To investigate the toxicity as a potential cause of decreased or increased activity in luciferase reporter gene assays, we tested a set of 40 active compounds in the COS-1 cell line used for the luciferase assays. Concentration-dependent toxic effects were investigated using the lactate dehydrogenase (LDH) assay to detect necrosis and the 3-(4,5-dimethylthiazol-2-yl)-2,5-diphenyltetrazolium bromide (MTT) assay as a measure of cell viability. […] For the data analysis, compounds were classified as toxic (Figures 5 and 7) if they induced a >10% decrease in cell viability in the MTT assay at the concentration of 10 μM. The most toxic compounds (35a, 35d, 54, 58, and 63–65) in the MTT assay all contained a phenyl substituent in the southern part ring, while the ortho-nitrophenyl-derivative 39g and the phenyl-substituted thiophene 47t were nontoxic. Higher flexibility in the central parts of the ethers (35a, 35d) and N-acylated amines (58, 64) might contribute to their toxicity, because less rigid compounds are more likely to have affinity to various biological targets. Such interactions can cause toxicity. To confirm and validate the results from MTT assays, we tested three nontoxic (2, 47s, and 72) and three toxic (1, 35a, and 58) compounds in a cell viability assay measuring intracellular ATP content.
(§2) Figure 5 Effects of selected compounds on COS-1 cell viability. (A) Compound-induced necrosis was quantified with the LDH assay after a 24-h compound exposure. The data are presented as cytotoxicity percentage (% of maximal LDH release). (B) Cell viability was analyzed with the MTT assay after a 24-h compound exposure. (A,B) The data are means from 2–3 independent experiments with 3 replicate wells in each and are presented as % of control (vehicle-treated cells). The compounds have been grouped on the basis of the structure of the central part: a, amide; b, ether; c, N-acylated amine; d, amine; and e, imine. (C) The effects of selected compounds on cell viability as determined by ATP content after a 24-h compound exposure. The data are mean + SEM from three independent experiments and are presented as % of vehicle-treated cells.
(§3) For toxicity screening, COS-1 cells were cultured in DMEM (Sigma-Aldrich, Steinheim, Germany) supplemented with 10% fetal bovine serum, 100 U/mL penicillin, and 100 μg/mL streptomycin (all from Gibco, Thermo Scientific) at 37 °C with 5% CO2. The cells were plated on 96-well plates at 10 000 cells/well and exposed to test compounds at a concentration range of 1–30 μM on the following day. After a 24-h compound treatment, lactate dehydrogenase (LDH) and 3-(4,5-dimethylthiazol-2-yl)-2,5-diphenyltetrazolium bromide (MTT) assays were carried out as described previously.[48] Briefly, LDH activity was determined from 50 μL samples of cell culture medium, to which 50 μL of substrate solution [1.3 mM β-nicotinamide-adenine dinucleotide, 660 μM iodonitrotetrazolium, 54 mM L(+)-lactic acid, and 280 μM phenazine methosulfate in 0.2 M Tris-HCl, pH 8.2, all from Sigma-Aldrich] was added, and the plate was incubated for 30 min at room temperature. The reaction was stopped with acetic acid (final concentration 333 mM), and absorbance was measured at 490 nm. The absorbance values of the samples were normalized to maximal LDH release and spontaneous LDH release determined on the same plate. Mitochondrial metabolic activity was quantified by incubating the cells with 0.5 mg/mL MTT (from Sigma-Aldrich) for 2 h at 37 °C with 5% CO2, whereafter culture medium was removed and formazan crystals were dissolved in DMSO. The absorbance was measured at 550 nm, and absorbance at 650 nm was subtracted as background.

COS-1 cells [5] = test: MTT assay (cell viability); details: for MTT.1µM / MTT.3µM / MTT.10µM / MTT.30µM: cell viability; for toxicity class in the MTT assay: 24-h exposure, classified at 10 μM
Description: as §1, §2, §3

[6] = luciferase reporter activity relative to control
[7] = luciferase reporter activity, % of control

T1 sequence (Q08369 whole entry): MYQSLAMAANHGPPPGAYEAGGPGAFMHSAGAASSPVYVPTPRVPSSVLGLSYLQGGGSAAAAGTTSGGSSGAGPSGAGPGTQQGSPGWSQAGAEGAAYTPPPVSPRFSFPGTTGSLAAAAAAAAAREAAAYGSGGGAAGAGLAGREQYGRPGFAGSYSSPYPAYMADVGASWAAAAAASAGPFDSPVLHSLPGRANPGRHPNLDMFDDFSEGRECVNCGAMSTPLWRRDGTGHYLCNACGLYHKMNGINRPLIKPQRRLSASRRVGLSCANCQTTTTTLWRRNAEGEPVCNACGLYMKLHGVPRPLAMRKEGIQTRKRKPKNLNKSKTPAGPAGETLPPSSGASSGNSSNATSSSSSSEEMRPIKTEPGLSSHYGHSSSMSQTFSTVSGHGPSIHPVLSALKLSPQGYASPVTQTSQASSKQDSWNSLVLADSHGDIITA
T1 sequence (P42582 whole entry): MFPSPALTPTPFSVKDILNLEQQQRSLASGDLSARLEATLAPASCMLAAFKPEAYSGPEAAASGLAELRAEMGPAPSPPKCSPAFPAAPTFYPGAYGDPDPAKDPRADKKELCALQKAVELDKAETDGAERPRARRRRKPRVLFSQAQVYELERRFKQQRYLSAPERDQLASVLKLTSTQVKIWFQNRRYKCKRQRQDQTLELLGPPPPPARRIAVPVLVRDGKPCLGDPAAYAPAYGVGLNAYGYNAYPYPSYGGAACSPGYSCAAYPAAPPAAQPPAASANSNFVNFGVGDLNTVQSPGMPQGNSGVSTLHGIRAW
T3 sequence (Q08369 whole entry): as the sequence (Q08369 whole entry) above
T2 sequence (P42582 whole entry): as the sequence (P42582 whole entry) above

Row | activity at 3 µM [1, 6] [%] | activity at 3 µM [2, 6] [%] | activity at 3 µM [3, 6] [%] | activity at 10 µM [1, 6] [%] | activity at 10 µM [3, 6] [%] | SMILES | LDH.1µM (COS-1 cells [4]) | LDH.3µM (COS-1 cells [4]) | LDH.10µM (COS-1 cells [4]) | LDH.30µM (COS-1 cells [4]) | MTT.1µM (COS-1 cells [5]) | MTT.3µM (COS-1 cells [5]) | MTT.10µM (COS-1 cells [5]) | MTT.30µM (COS-1 cells [5]) | also measured
1 | 100 | 113 | 92.4 |  |  | CCN(CC)c1ccc(CN(C(=O)C(F)(F)F)c2c(-c3ccccc3)noc2C)cc1 [Compound 30c] | 1.2 | 0 | -0.99 | -1.08 | 100.8 | 97.78 | 91.24 | 75.4 | 
2 | 46 | 60.8 | 72.4 | 35.4 |  | CCN(CC)c1ccc(NC(=O)c2cc(C)oc2-c2ccccc2)cc1 [Compound 54] | 1.02 | 0.88 | -0.26 | 3.27 | 97.73 | 83.61 | 74.16 | 71.09 | toxicity class in the MTT assay (COS-1 cells [5]): most toxic
3 | 75.5 | 106 | 96.7 |  | 102 | CCN(CC)c1ccc(NC(=O)c2c(C)noc2-c2cc(C)on2)cc1 [Compound 3] | 0.35 | -0.67 | -1.59 | -1.83 | 105.34 | 105.48 | 100.7 | 92.68 | 
4 | 67.6 | 91.1 | 91.4 |  |  | CCN(CC)c1ccc(NC(=O)c2cnc(SC)n2-c2ccc(F)cc2)cc1 [Compound 47z] | 0.94 | 1.33 | -0.3 | -0.25 | 102.53 | 95.99 | 96.05 | 93 | 
5 | 41.6 | 69.7 | 68 |  |  | CCN(c1ccc(NC(=O)c2c(C)noc2-c2ccccc2)cc1)C(C)C [Compound 63] | 0.04 | -1.53 | -2.08 | 0.01 | 99.16 | 82.83 | 75.83 | 61.58 | 
6 | 97.5 | 99 | 114 |  |  | CCN(CC)c1ccc(CNc2c(-c3ccccc3)noc2C)cc1 [Compound 33, N-[4-(Diethylamino)benzyl]-5-methyl-3-phenylisoxazol-4-amine] | 2.57 | 2.98 | 2.01 | 0.31 | 111.17 | 102.56 | 104.2 | 96.47 | 
7 | 101 | 112 | 108 | 144 | 132 | CCN(CC)c1ccc(NC(=O)c2cnc3ncccn23)cc1 [Compound 47aa] | 1.59 | 1 | 1.6 | -0.51 | 101.8 | 103.86 | 99.76 | 95.63 | activity at 10 µM [2, 6]: 118%; GATA4 (% of control) Mean ± SD [3]: 130 % of control

More lines, now with the values behind:

Row | SMILES | activity at 3 µM [1, 6] [%] | activity at 3 µM [2, 6] [%] | activity at 3 µM [3, 6] [%] | activity at 10 µM [1, 6] [%] | activity at 10 µM [3, 6] [%] | LDH.1µM (COS-1 cells [4]) | LDH.3µM (COS-1 cells [4]) | LDH.10µM (COS-1 cells [4]) | LDH.30µM (COS-1 cells [4]) | MTT.1µM (COS-1 cells [5]) | MTT.3µM (COS-1 cells [5]) | MTT.10µM (COS-1 cells [5]) | MTT.30µM (COS-1 cells [5]) | also measured
8 | CCN(CC)c1ccc(NC(=O)c2c(-c3ccc(F)cc3)noc2C)cc1 [Compound 39d, N-[4-(Diethylamino)phenyl]-3-(4-fluorophenyl)-5-methylisoxazole-4-carboxamide] |  |  |  |  |  |  |  |  |  |  |  |  |  | activity at 3 µM [1, 7]: 61.4%; activity at 3 µM [2, 7]: 73.3%; activity at 3 µM [3, 7]: 94.4%; LDH.1µM (COS-1 cells [4]; COS-1 cells): 3.12; LDH.3µM (COS-1 cells [4]; COS-1 cells): -0.19; LDH.10µM (COS-1 cells [4]; COS-1 cells): -0.49; LDH.30µM (COS-1 cells [4]; COS-1 cells): 2.51; MTT.1µM (COS-1 cells [5]; COS-1 cells): 99.41%; MTT.3µM (COS-1 cells [5]; COS-1 cells): 97.69%; MTT.10µM (COS-1 cells [5]; COS-1 cells): 91.72%; MTT.30µM (COS-1 cells [5]; COS-1 cells): 87.25%
9 | COc1ccc(-c2cc(N)nn2C(=O)c2c(-c3ccccc3)noc2C)cc1 [SI137, [3-Amino-5-(4-methoxyphenyl)-1H-pyrazol-1-yl] (5-methyl-3-phenylisoxazol-4-yl) methanone] | 90.6 | 88 | 85.3 | 72.1 | 76.5 | 3.49 | 2.98 | 0.2 | -2.71 | 100.57 | 105.12 | 104.9 | 96.15 | activity at 10 µM [2, 6]: 65.2%
10 | CN(C)c1ccc(NCc2c[nH]nc2-c2ccc(F)cc2)cc1 [SI78] | 67.2 | 70.7 | 83.7 | 42.2 | 49.1 | 0.7 | 1 | -1.06 | -2.54 | 105.6 | 102.53 | 103.53 | 103.47 | activity at 10 µM [2, 6]: 43%
11 | CCN(CC)c1ccc(/C=N/c2c(-c3ccccc3)noc2C)c(O)c1 [SI44] | 84.8 | 99.9 | 107 | 53.2 | 74.1 | 2.83 | 1.4 | -0.96 | 0.36 | 105.22 | 100.5 | 90.69 | 89.22 | activity at 10 µM [2, 6]: 53.9%
12 | CC(=O)COC(=O)c1ccc(OCc2c(-c3ccccc3)noc2C)cc1 [Compound 35d] | 51.3 | 56.8 | 65.3 |  |  | -0.61 | -0.5 | -0.15 | -0.05 | 81.99 | 73.26 | 64.91 | 61.12 | toxicity class in the MTT assay (COS-1 cells [5]): most toxic
13 | Cc1onc(-c2ccccc2)c1C(=O)Nc1ccc(C#C[Si](C)(C)C)cc1 [Compound 4j, 5-Methyl-3-phenyl-N-[4-[(trimethylsilyl)ethynyl]phenyl]isoxazole-4-carboxamide] | 67.8 | 98.2 | 110 |  |  | 1.09 | 1.13 | 0.61 | 1.5 | 104.97 | 104.95 | 102.07 |  | 
14 | Cc1onc(-c2ccccc2)c1C(=O)Nc1ccc2oc(-c3ccccc3)cc(=O)c2c1 [Compound 4g] | 62.6 | 85.2 | 40.2 |  |  | -0.29 | 0.38 | -0.94 | -0.1 | 109.72 | 101.99 | 88.31 | 82.48 | GATA4 (% of control) Mean ± SD [3]: 66 % of control
